These compounds were tested against human CCR2 (Homo sapiens, UniProt P41597) (assay: CCR2 functional calcium assay (FLIPR calcium flux, hMCP-1 challenge)). Details: HEK293 EBNA cells transfected with human CCR2, hMCP-1 challenge; read-out: Functional CCR2 fKi.
Type: cell-based
Design: expressed in transfected cells; host or cells: HEK293 EBNA cells
Text: The CCR2 receptor couples through the Gi/Gq signaling pathway and results in activation of calcium mobilization. The functional activity of test compounds was routinely tested by measuring the ability of compounds to antagonize CCR2 activity in a dose dependent manner, in HEK293 EBNA cells transfected with the human CCR2 receptor (hMCP-1 challenge), using a calcium flux Fluorescent Imaging Plate Reader FLIPR assay. Non-transfected HEK293 EBNA cells were used as control of non-specific response.
Briefly, test compounds were dissolved in dimethyl sulfoxide (DMSO) to a concentration of 10 mM and stored in matrix screenmate racks. The required amount of compound was transferred to 96-well compound plates on the day of assay and diluted in assay buffer to the required final concentration; dose-response measurements were assayed by making 1:3 serial dilutions to produce 10 point curves. The compounds were then transferred to 384-well assay plates ready for use. Top concentrations were adjusted depending on the potency of the compounds with a typical concentration range of 30 μM to 0.5 nM being used. The assay buffer used was HBSS buffer supplemented with 20 mM HEPES and 0.1% BSA, pH7.4. The loading/wash buffers were the same as the assay buffer.
Cells were suspended in culture medium at a density of 10000 cells/50 μl (the cell culture media composition was DMEM high glucose supplemented with 10% dialyzed FBS, 250 μg/ml Geneticin, and 400 μg/ml Hygromycin B), transferred to 384-well black/clear Costar plates (Costar #3712) (50 μl/well) and incubated at 37° C., in a 5% CO2/95% air humidified incubator for 16 h. The cells were washed with assay buffer at 37° C. using the Biotek ELx 405, washing 3 times, leaving 20 μl buffer in the well. 20 μl Fluo-4 (Fluo-4 stock solution (1 mM) was prepared by dissolving one vial of Fluo-4 (50 μg) in 45 μl of pluronic acid (240 mg/ml in DMSO). This stock solution of Fluo-4 was then diluted 250 times with loading buffer to give a Fluo-4 concentration of 4 μM. The dye solution (used within 2 h and kept away from light) was added to each well using a repeating multichannel pipette; the cells were then incubated at 37° C. for 60 min. Following the incubation, cells were washed in assay buffer at 37° C. using the Biotek ELx 405, washing 3 times, leaving 40 μl in each well and incubated for 10 min at 37° C. before use. A combined agonist/antagonist protocol was used. Compound (antagonist) was added to the cell plate using the FLIPR. Basal fluorescence was recorded every second for 10 seconds prior to compound addition (10 μl) and fluorescence recorded every second for 1 minute then every 6 seconds for a further 1 minute. Agonist (MCP-1) was then added using the FLIPR and fluorescence recorded as described above.
The positive control (agonist) was human recombinant MCP-1 which was stored as a stock concentration of 10 μM in distilled water and stored at −20° C. (maximal response: 30 nM; EC50 dose: 3-5 nM). The reference compound (antagonist) was RS102895 which was used as a 10 mM DMSO solution and stored at −20° C.
FLIPR responses were measured as peak minus basal fluorescence intensity and were expressed as a percentage of EC50 MCP-1 challenge. Curve-fitting and parameter estimation were carried out using GraphPad Prism 4.0 (GraphPad Software Inc., San Diego, Calif.).

Chain of human CCR2 (P41597 whole entry): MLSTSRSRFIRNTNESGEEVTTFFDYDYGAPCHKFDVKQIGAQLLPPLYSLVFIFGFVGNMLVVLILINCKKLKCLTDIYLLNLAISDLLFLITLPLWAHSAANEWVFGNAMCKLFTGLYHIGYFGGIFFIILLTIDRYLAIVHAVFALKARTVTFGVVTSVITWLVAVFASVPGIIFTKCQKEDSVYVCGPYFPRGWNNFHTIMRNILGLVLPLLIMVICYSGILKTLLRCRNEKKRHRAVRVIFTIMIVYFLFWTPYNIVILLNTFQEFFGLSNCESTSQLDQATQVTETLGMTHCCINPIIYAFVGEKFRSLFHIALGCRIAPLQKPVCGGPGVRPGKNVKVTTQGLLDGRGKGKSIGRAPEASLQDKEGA

SMILES | Ki [nM]
CC(C)OC(=O)c1nc2ccnn2c(O)c1Cc1cccc(Cl)c1 [Example 82, Propan-2-yl 6-[(3-chlorophenyl)methyl]-7-hydroxypyrazolo[1,5-a]pyrimidine-5-carboxylate] | < 10
COC(=O)c1nc2ccnn2c(O)c1Cc1ccc(Cl)c(Cl)c1 [Example 83, Methyl 6-[(3,4-dichlorophenyl)methyl]-7-hydroxypyrazolo[1,5-a]pyrimidine-5-carboxylate] | < 10
CC(C)OC(=O)c1nc2ccnn2c(O)c1Cc1ccc(Cl)c(Cl)c1 [Example 84, Propan-2-yl 6-[(3,4-dichlorophenyl)-methyl]-7-hydroxy pyrazolo[1,5-a]-pyrimidine-5-carboxylate] | < 10
O=C(O)c1nc2ccnn2c(O)c1Cc1cccc(Cl)c1 [Example 85, 6-[(3-Chlorophenyl)methyl]-7-hydroxypyrazolo[1,5-a]pyrimidine-5-carboxylic acid] | 100 to 1000
CC(C)OC(=O)c1nc2ccnn2c(O)c1Cc1cccc(C(F)(F)F)c1 [Example 86, Propan-2-yl7-hydroxy-6-{[3-(trifluoromethyl)phenyl]methyl}pyrazolo[1,5-a]pyrimidine-5-carboxylate] | 10 to 100
CC(C)OC(=O)c1nc2ccnn2c(O)c1Cc1ccc(F)c(Cl)c1 [Example 87, Propan-2-yl6-[(3-chloro-4-fluorophenyl)methyl]-7-hydroxypyrazolo[1,5-a]pyrimidine-5-carboxylate] | < 10
CC(C)OC(=O)c1nc2ccnn2c(O)c1Cc1ccc(Cl)c(F)c1 [Example 88, Propan-2-yl6-[(4-chloro-3-fluorophenyl)methyl]-7-hydroxypyrazolo[1,5-a]pyrimidine-5-carboxylate] | < 10
COC(=O)c1nc2ccnn2c(O)c1Oc1ccc(Cl)c(Cl)c1 [Example 89, Methyl 6-(3,4-dichlorophenoxy)-7-hydroxypyrazolo[1,5-a]pyrimidine-5-carboxylate] | < 10
OCc1nc2ccnn2c(O)c1Cc1ccc(Cl)cc1 [Example 90, 6-[(4-Chlorophenyl)methyl]-5-(hydroxymethyl)pyrazolo[1,5-a]pyrimidin-7-ol] | 100 to 1000
Oc1c(Cc2ccc(Cl)cc2)c(CN2CCOCC2)nc2ccnn12 [Example 91, 6-[(4-Chlorophenyl)methyl]-5-(morpholin-4-ylmethyl)pyrazolo[1,5-a]pyrimidin-7-ol] | 100 to 1000
Cc1noc(-c2nc3ccnn3c(O)c2Cc2cccc(F)c2)n1 [Example 92, 6-[(3-Fluorophenyl)methyl]-5-(3-methyl-1,2,4-oxadiazol-5-yl)pyrazolo[1,5-a]pyrimidin-7-ol] | 100 to 1000
CC(C)(O)c1nc2ccnn2c(O)c1Cc1cccc(F)c1 [Example 93, 6-[(3-Fluorophenyl)methyl]-5-(2-hydroxypropan-2-yl)pyrazolo[1,5-a]pyrimidin-7-ol] | 100 to 1000
CC(=O)c1nc2ccnn2c(O)c1Cc1cccc(F)c1 [Example 94, 1-{6-[(3-Fluorophenyl)methyl]-7-hydroxypyrazolo[1,5-a]pyrimidin-5-yl}ethan-1-one] | 10 to 100
CC(O)c1nc2ccnn2c(O)c1Cc1cccc(F)c1 (centres unmarked) [Example 95, 6-[(3-Fluorophenyl)methyl]-5-(1-hydroxyethyl)pyrazolo[1,5-a]pyrimidin-7-ol] | 100 to 1000
CC(=O)c1nc2ccnn2c(O)c1Cc1ccc(Cl)c(Cl)c1 [Example 96, 1-{6-[(3,4-Dichlorophenyl)methyl]-7-hydroxypyrazolo[1,5-a]pyrimidin-5-yl}ethan-1-one] | 10 to 100
CCC(=O)c1nc2ccnn2c(O)c1Cc1ccc(Cl)c(Cl)c1 [Example 97, 1-{6-[(3,4-Dichlorophenyl)methyl]-7-hydroxypyrazolo[1,5-a]pyrimidin-5-yl}propan-1-one] | 10 to 100

SMILES | Ki [nM]
Cc1noc(Cc2nc3ccnn3c(O)c2Cc2ccc(Cl)cc2)n1 [Example 98, 6-[(4-Chlorophenyl)methyl]-5-[(3-methyl-1,2,4-oxadiazol-5-yl)methyl]pyrazolo[1,5-a]-pyrimidin-7-ol] | 100 to 1000
CNC(=O)c1cnn2c(O)c(Cc3ccc(Cl)cc3)c(C)nc12 [Example 99, 6-[(4-Chlorophenyl)methyl]-7-hydroxy-N,5-dimethylpyrazolo[1,5-a]pyrimidine-3-carboxamide] | 100 to 1000
Cc1nc2c(C(=O)N(C)C)cnn2c(O)c1Cc1ccc(Cl)cc1 [Example 100, 6-[(4-Chlorophenyl)methyl]-7-hydroxy-N,N,5-trimethylpyrazolo[1,5-a]pyrimidine-3-carboxamide] | 100 to 1000
Cc1nc2c(C(=O)NC[C@H]3CCCO3)cnn2c(O)c1Cc1ccc(Cl)cc1 [Example 101, 6-[(4-Chlorophenyl)methyl]-7-hydroxy-5-methyl-N-[(2R)-oxolan-2-ylmethyl]-pyrazolo[1,5-a]pyrimidine-3-carboxamide] | 100 to 1000
COCCNC(=O)c1cnn2c(O)c(Cc3ccc(C)cc3)c(C)nc12 [Example 102, 7-Hydroxy-N-(2-methoxyethyl)-5-methyl-6-[(4-methylphenyl)methyl]pyrazolo[1,5-a]pyrimidine-3-carboxamide] | 100 to 1000
Cc1nc2c(C(=O)NCCOc3ccccc3)cnn2c(O)c1Cc1ccccc1 [Example 103, 6-Benzyl-7-hydroxy-5-methyl-N-(2-phenoxyethyl)pyrazolo[1,5-a]pyrimidine-3-carboxamide] | 100 to 1000
Cc1nc2c(C(=O)N3CCN(C)CC3)cnn2c(O)c1Cc1ccc(Cl)cc1 [Example 104, 6-[(4-Chlorophenyl)methyl]-5-methyl-3-[(4-methylpiperazin-1-yl)carbonyl]pyrazolo [1,5-a]pyrimidin-7-ol] | 100 to 1000
Cc1nc2c(C(=O)NCCc3ccccc3)cnn2c(O)c1Cc1ccc(Cl)cc1 [Example 105, 6-[(4-Chlorophenyl)methyl]-7-hydroxy-5-methyl-N-(2-phenylethyl)pyrazolo[1,5-a]pyrimidine-3-carboxamide] | 100 to 1000
C=CCNC(=O)c1cnn2c(O)c(Cc3ccc(Cl)cc3)c(C)nc12 [Example 106, 6-[(4-Chlorophenyl)methyl]-7-hydroxy-5-methyl-N-(prop-2-en-1-yl)pyrazolo[1,5-a]-pyrimidine-3-carboxamide] | 100 to 1000
COCCNC(=O)c1cnn2c(O)c(Cc3ccc(Cl)cc3)c(C)nc12 [Example 107, 6-[(4-Chlorophenyl)methyl]-7-hydroxy-N-(2-methoxyethyl)-5-methylpyrazolo[1,5-a]-pyrimidine-3-carboxamide] | 10 to 100
CSCCNC(=O)c1cnn2c(O)c(Cc3ccc(Cl)cc3)c(C)nc12 [Example 108, 6-[(4-Chlorophenyl)methyl]-7-hydroxy-5-methyl-N-[2-(methylsulfanyl)ethyl] pyrazolo[1,5-a]pyrimidine-3-carboxamide] | 100 to 1000
Cc1nc2c(C(=O)N(C)CCC#N)cnn2c(O)c1Cc1ccc(Cl)cc1 [Example 109, 6-[(4-Chlorophenyl)methyl]-N-(2-cyanoethyl)-7-hydroxy-N,5-dimethylpyrazolo[1,5-a] pyrimidine-3-carboxamide] | 100 to 1000
Cc1ccc(Cc2c(C)nc3c(C(=O)NCCc4ccccn4)cnn3c2O)cc1 [Example 111, 7-Hydroxy-5-methyl-6-[(4-methylphenyl)-methyl]-N-[2-(pyridin-2-yl)ethyl]pyrazolo-[1,5-a]pyrimidine-3-carboxamide] | 100 to 1000
COCCCNC(=O)c1cnn2c(O)c(Cc3ccccc3)c(C)nc12 [Example 112, 6-Benzyl-7-hydroxy-N-(3-methoxypropyl)-5-methylpyrazolo[1,5-a] pyrimidine-3-carboxamide] | 100 to 1000
COCCNC(=O)c1cnn2c(O)c(Cc3ccc(C(F)(F)F)cc3)c(C)nc12 [Example 113, 7-Hydroxy-N-(2-methoxyethyl)-5-methyl-6-{[4-(trifluoromethyl)phenyl]methyl}pyrazolo [1,5-a]pyrimidine-3-carboxamide] | 100 to 1000
Cc1nc2c(C(=O)N3CCOCC3)cnn2c(O)c1Cc1ccc(C(F)(F)F)cc1 [Example 114] | 100 to 1000
